Reference: ChEMBL document CHEMBL1201862, “PubChem BioAssay data set” (2004)
Active and inactive are the calls of the source.

Key:
[1] = NIH-3T3 fibroblast cytotoxicity, dose response, cytotoxicity control, cell-based, fluorescence, Alamar Blue, secondary assay (AID 2327); format: functional;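 also: NIH-3T3 mouse fibroblasts cultured with fluconazole at 8 µg/mL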
[2] = fluconazole-exposed Candida albicans growth modulators – fluorescence, retest, confirmation (AID 2467); format: functional, cell-based
[3] = molecular target: T1, Rac GTPase-activating protein 1 (Homo sapiens, UniProt Q9H0H5); assay: blockers of MgcRacGAP-driven Rac1 GTP hydrolysis – biochemical, ADP Hunter fluorescence, primary and confirmatory, confirmation (AID 624330); format: functional
T1 sequence (Q9H0H5 whole entry): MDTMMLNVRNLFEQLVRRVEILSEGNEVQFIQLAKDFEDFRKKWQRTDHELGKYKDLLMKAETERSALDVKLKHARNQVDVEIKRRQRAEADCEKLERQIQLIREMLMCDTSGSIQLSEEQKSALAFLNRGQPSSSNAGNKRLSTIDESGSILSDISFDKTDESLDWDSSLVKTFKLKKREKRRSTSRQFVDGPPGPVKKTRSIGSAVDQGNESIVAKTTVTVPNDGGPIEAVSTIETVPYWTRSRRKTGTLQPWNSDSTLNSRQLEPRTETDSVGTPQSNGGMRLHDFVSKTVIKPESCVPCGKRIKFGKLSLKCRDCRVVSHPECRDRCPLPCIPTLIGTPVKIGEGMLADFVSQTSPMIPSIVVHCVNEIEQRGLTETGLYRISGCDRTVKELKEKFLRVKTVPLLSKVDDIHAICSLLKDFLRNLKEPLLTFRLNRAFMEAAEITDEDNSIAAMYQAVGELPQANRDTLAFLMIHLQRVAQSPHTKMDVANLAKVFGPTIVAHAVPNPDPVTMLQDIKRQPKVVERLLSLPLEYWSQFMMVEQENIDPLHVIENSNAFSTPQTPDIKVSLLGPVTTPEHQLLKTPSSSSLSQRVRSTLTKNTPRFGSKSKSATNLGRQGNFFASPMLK

Nonstructural protein 1 = Nonstructural protein 1 (Influenza A virus, UniProt Q194T2); format: functional, Influenza A virus (A/California/07/2009(H1N1))
Chain of Nonstructural protein 1 (Q194T2 whole entry): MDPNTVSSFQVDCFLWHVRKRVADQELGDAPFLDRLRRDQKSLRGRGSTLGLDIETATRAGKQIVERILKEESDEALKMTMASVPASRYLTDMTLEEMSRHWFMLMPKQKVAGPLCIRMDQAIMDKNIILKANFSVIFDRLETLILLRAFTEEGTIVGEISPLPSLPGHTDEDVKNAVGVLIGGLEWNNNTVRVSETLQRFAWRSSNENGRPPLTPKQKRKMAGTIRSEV

[4] = molecular target: T2, Zinc finger protein mex-5 (Caenorhabditis elegans, UniProt Q9XUB2); assay: potency of MEX-5 RNA-binding blockers – biochemical, C. elegans, fluorescence polarization, dose response (AID 1960)
T2 sequence (Q9XUB2 whole entry): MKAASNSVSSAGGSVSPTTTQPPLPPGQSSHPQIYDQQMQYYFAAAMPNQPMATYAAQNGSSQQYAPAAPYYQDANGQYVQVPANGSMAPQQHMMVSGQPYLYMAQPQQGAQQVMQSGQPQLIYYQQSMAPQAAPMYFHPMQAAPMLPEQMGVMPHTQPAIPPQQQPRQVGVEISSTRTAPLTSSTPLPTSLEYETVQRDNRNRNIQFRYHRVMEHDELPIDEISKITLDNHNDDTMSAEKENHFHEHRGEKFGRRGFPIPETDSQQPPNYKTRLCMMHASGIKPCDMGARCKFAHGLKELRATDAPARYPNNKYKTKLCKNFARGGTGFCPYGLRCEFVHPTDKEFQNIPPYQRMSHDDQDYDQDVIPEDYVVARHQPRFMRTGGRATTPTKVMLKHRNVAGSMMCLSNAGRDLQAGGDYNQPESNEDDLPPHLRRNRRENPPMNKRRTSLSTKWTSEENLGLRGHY

[5] = molecular target: T3, RNA-binding protein pos-1 (Caenorhabditis elegans, UniProt G5EF15); assay: disruptors of C. elegans POS-1 RNA interaction – biochemical, fluorescence polarization, dose response (AID 1964);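 also: purified POS-1 fused to maltose binding protein made in E. coli; potency of compounds blocking POS-1 binding to fluorescent RNA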
T3 sequence (G5EF15 whole entry): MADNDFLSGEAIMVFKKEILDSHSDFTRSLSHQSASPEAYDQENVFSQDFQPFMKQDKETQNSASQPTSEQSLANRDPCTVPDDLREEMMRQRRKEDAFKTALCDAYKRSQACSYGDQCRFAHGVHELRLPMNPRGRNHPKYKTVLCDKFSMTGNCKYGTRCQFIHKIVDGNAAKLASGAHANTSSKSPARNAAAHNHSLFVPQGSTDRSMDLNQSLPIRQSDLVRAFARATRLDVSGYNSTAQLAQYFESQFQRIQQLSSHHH

[6] = molecular target: T4, Replicative DNA helicase DnaB (Mycobacterium tuberculosis, UniProt P9WMR3); assay: DnaB intein splicing inhibitors, dose response, biochemical, cell-free fluorescence (AID 449749); format: functional
T4 sequence (P9WMR3 whole entry): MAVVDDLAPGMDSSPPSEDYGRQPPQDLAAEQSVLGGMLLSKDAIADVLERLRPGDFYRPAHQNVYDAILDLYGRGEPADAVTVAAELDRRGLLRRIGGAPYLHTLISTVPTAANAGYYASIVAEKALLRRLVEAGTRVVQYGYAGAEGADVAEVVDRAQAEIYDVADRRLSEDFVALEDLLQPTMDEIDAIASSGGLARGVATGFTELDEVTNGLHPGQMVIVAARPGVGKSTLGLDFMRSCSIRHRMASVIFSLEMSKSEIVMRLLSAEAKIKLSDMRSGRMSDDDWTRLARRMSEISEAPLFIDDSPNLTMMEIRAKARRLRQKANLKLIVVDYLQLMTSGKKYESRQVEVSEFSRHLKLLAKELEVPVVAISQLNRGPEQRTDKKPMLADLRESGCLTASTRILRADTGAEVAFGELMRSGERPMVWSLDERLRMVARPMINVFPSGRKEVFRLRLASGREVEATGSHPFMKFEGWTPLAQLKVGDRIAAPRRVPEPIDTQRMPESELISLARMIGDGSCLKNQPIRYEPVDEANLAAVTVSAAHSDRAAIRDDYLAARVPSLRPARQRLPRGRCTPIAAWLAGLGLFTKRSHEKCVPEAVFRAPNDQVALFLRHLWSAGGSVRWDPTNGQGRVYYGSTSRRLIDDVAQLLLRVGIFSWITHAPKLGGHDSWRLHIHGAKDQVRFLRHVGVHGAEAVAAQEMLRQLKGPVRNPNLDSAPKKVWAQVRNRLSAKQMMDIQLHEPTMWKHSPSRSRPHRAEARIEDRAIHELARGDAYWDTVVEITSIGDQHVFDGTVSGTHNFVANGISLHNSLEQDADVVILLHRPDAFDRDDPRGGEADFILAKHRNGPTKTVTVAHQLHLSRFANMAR

[7] = molecular target: T5, Heat shock factor protein 1 (Mus musculus, UniProt P38532); assay: enhancement of HSF1-driven luciferase signal – cell-based, NIH3T3, luminescence, dose retest, confirmation (AID 435004); format: functional;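 also: stress induced by proteasome inhibitor MG132 added 30 min after compound; luciferase reporter driven by HSF1 response element in NIH3T3 cells; actives raise luminescence as potentiators of the MG132 stress response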
T5 sequence (P38532 whole entry): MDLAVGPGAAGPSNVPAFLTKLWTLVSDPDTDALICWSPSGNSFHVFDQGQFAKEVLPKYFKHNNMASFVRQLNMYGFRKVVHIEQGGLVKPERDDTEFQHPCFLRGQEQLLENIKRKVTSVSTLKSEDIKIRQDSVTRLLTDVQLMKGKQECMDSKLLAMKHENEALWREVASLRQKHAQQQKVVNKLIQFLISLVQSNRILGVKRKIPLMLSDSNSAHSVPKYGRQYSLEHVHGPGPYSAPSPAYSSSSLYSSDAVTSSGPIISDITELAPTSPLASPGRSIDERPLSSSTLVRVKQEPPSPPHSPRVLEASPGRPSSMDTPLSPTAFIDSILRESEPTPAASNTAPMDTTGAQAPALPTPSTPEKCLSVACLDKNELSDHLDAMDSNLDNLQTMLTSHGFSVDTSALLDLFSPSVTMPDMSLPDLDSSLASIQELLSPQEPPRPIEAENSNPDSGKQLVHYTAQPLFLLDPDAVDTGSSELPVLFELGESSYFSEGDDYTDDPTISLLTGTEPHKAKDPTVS

Protein RecA = molecular target: T6, Protein RecA (Mycobacterium tuberculosis, UniProt P9WHJ3); assay: Fluorescence Cell-Free Homogeneous Dose Retest to Identify Inhibitors of RecA-Intein Splicing Activity. [Related pubchem assays (depositor defined):AID2097, AID2223, AID489010, AID492950]; format: functional
T6 sequence (P9WHJ3 whole entry): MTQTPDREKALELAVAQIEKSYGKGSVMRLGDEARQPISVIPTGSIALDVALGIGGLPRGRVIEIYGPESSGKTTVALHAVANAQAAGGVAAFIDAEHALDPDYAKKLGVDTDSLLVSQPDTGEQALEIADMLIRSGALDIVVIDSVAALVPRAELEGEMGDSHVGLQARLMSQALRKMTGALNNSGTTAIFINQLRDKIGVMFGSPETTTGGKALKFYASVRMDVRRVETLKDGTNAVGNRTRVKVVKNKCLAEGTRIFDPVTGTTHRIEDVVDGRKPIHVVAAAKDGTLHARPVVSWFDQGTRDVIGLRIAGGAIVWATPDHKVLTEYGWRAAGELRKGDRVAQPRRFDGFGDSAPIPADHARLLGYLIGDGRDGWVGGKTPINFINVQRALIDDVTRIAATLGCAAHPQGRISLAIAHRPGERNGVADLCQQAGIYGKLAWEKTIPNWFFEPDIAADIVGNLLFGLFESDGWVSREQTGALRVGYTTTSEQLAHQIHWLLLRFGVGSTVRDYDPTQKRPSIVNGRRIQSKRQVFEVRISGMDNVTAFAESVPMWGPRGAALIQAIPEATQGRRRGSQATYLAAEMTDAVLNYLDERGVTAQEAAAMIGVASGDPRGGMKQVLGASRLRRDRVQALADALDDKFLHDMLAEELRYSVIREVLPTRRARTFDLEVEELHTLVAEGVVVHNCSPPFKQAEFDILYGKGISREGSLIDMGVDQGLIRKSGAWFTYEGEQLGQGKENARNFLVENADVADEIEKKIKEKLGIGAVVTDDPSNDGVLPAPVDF

[8] = HIV-1 AD8 envelope cell-cell fusion blockers – cherry-pick, dose response (AID 652062); format: functional, cell-based;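 also: luciferase signal from cell-cell fusion driven by HIV-1 clade B AD8 Env; potency is for inhibitors of fusion seen as a drop in luminescence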
INS1 = assay: INS-1E survival protection against cytokine death – cell-based, luminescence, retest, dose response (AID 449756); format: functional; conditions: Rattus norvegicus;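 also: cell death triggered by IL-1 beta plus TNF-alpha plus IFN-gamma mixture; protective hits raise ATP signal compared with cytokine alone wells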

Cc1nn(-c2ccccc2)c(C)c1C(=O)Nc1nnc(-c2ccco2)o1
EC50 [1]: > 150 µM (inactive)
EC50 [2]: 1.03 µM (active)

O=C(c1cccc(F)c1)N1CCN(Cc2cccc(Br)c2)CC1
IC50 [3]: 136 µM (active)

COc1ccc(OCCOCCN2CCN(C)CC2)cc1
IC50 [3]: 70.2 µM (active)

Cc1cccc(-n2cnc(C(=O)NN=C(S)Nc3ccc(Cl)cc3)c2)n1
IC50 (Nonstructural protein 1): 8.22 µM (active)

COc1ccc(NC2CCCN(C(=O)COc3ccc(Cl)cc3C)C2)cc1OC (configuration not stated)
IC50 [3]: 110 µM (active)

COc1cc(C2CC(=O)Oc3c(C(CCN4CCCC(C)C4)c4ccc(N(C)C)cc4)c(OC)cc(OC)c32)cc(OC)c1OC (configuration not stated)
IC50 (Nonstructural protein 1): 28.5 µM (active)

COc1ccc(C(=O)On2c(-c3ccc(Br)cc3)nc3ccccc3c2=O)cc1
EC50 [1]: 6.36 µM (inconclusive)
EC50 [2]: 1.8 µM (active)

CC(C)(C)c1ccc(SCC(N)=O)cc1
EC50 [1]: > 150 µM (inconclusive)
EC50 [2]: > 38 µM (not active)

O=[N+]([O-])c1cc(Br)c2nsnc2c1N1CCOCC1
IC50 (Nonstructural protein 1): 27.5 µM (active)

COc1ccc(N2CCN(CC(=O)N3c4ccccc4CC3C)CC2)cc1 (configuration not stated)
IC50 [3]: 79.7 µM (active)

Cc1cc(Cl)ccc1NNC(=O)c1c(C)noc1C
EC50 [1]: 32.7 µM (active)
EC50 [2]: > 38 µM (not active)

CN1CCc2c(sc3c2C(=O)NC(c2ccccn2)N3)C1 (configuration not stated)
EC50 [4]: 14.3 µM (active)
EC50 [5]: 15.1 µM (active)
IC50 (Nonstructural protein 1): 13.7 µM (active)

COc1cc(OC)cc(-c2nnc(Sc3ccc(C=O)cc3[N+](=O)[O-])o2)c1
AC50 [6]: 6.58 µM (active)
EC50 [7]: > 260 µM (inactive)
EC50 (Protein RecA): 2.04 µM (active)

O=C(COC(=O)c1cccc(S(=O)(=O)N2CCOCC2)c1)NCc1ccccc1
AC50 [8]: 59.6 µM (active)

COc1ccc(S(=O)(=O)NC[C@@H]2CC[C@H]3[C@H](CN3Cc3cc(F)ccc3F)O2)cc1
AC50 [8]: 1.21 µM (active)

O=C(C[C@@H]1C[C@H]2c3cc(NC(=O)C4CCC4)ccc3O[C@H]2[C@H](CO)O1)NCC(F)(F)F
AC50 [8]: 1.7 µM (active)

NC(=S)N/N=C/c1ccccc1O
AC50 (INS1): 0.945 µM (active)
IC50 (Nonstructural protein 1): 14.1 µM (active)

CSc1nc(Cl)c(C#N)c(-c2ccc(C)cc2)n1
EC50 [1]: > 150 µM (inconclusive)
EC50 [2]: 1.55 µM (active)

O=[N+]([O-])c1cc(/C=N/Nc2nc(N3CCCCC3)nc(N3CCCCC3)n2)ccc1O
IC50 (Nonstructural protein 1): > 100 µM (active)

O=C(Cc1cccs1)N/N=C\c1ccc(O)cc1
IC50 [3]: 39.3 µM (active)

CCOC(=O)CC(/C(C)=N\O)c1ccccc1 (configuration not stated)
EC50 [1]: > 160 µM (inactive)
EC50 [2]: > 38 µM (not active)
